The data set has as its system CCRIS mutagenicity, Ames/micronucleus/aberration tests. Put plainly: CCRIS mutagenicity studies.
Setting [1] is: Test System: AMES SALMONELLA TYPHIMURIUM, Strain/Indicator: TA97, Metabolic Activation: HAMSTER, LIVER, S-9, AROCLOR 1254 (10 OR 30%), Method: PREINCUBATION
The mark [2] stands for this setting: Test System: AMES SALMONELLA TYPHIMURIUM, Strain/Indicator: TA97, Metabolic Activation: NONE, Method: PREINCUBATION
The mark [3] stands for this setting: Test System: AMES SALMONELLA TYPHIMURIUM, Strain/Indicator: TA97, Metabolic Activation: RAT, LIVER, S-9, AROCLOR 1254 (10 OR 30%), Method: PREINCUBATION
Setting [4] is: Test System: AMES SALMONELLA TYPHIMURIUM, Strain/Indicator: TA98, Metabolic Activation: HAMSTER, LIVER, S-9, AROCLOR 1254 (10 OR 30%), Method: PREINCUBATION
[5] abbreviates: Test System: AMES SALMONELLA TYPHIMURIUM, Strain/Indicator: TA98, Metabolic Activation: NONE, Method: PREINCUBATION
[6] abbreviates: Test System: AMES SALMONELLA TYPHIMURIUM, Strain/Indicator: TA98, Metabolic Activation: RAT, LIVER, S-9, AROCLOR 1254 (10 OR 30%), Method: PREINCUBATION
Where [7] appears, read: Test System: AMES SALMONELLA TYPHIMURIUM, Strain/Indicator: TA100, Metabolic Activation: HAMSTER, LIVER, S-9, AROCLOR 1254 (10 OR 30%), Method: PREINCUBATION
The mark [8] stands for this setting: Test System: AMES SALMONELLA TYPHIMURIUM, Strain/Indicator: TA100, Metabolic Activation: NONE, Method: PREINCUBATION
The mark [9] stands for this setting: Test System: AMES SALMONELLA TYPHIMURIUM, Strain/Indicator: TA100, Metabolic Activation: RAT, LIVER, S-9, AROCLOR 1254 (10 OR 30%), Method: PREINCUBATION
The mark [10] stands for this setting: Test System: AMES SALMONELLA TYPHIMURIUM, Strain/Indicator: TA1535, Metabolic Activation: HAMSTER, LIVER, S-9, AROCLOR 1254 (10 OR 30%), Method: PREINCUBATION
Where [11] appears, read: Test System: AMES SALMONELLA TYPHIMURIUM, Strain/Indicator: TA1535, Metabolic Activation: NONE, Method: PREINCUBATION
The mark [12] stands for this setting: Test System: AMES SALMONELLA TYPHIMURIUM, Strain/Indicator: TA1535, Metabolic Activation: RAT, LIVER, S-9, AROCLOR 1254 (10 OR 30%), Method: PREINCUBATION
[13] abbreviates: Test System: AMES SALMONELLA TYPHIMURIUM, Strain/Indicator: TA100, Metabolic Activation: NONE, Method: STANDARD PLATE.
[14] abbreviates: Test System: AMES SALMONELLA TYPHIMURIUM, Strain/Indicator: TA98, Metabolic Activation: RAT, LIVER, S-9, PCB, Method: PREINCUBATION
Where [15] appears, read: Test System: AMES SALMONELLA TYPHIMURIUM, Strain/Indicator: TA100, Metabolic Activation: RAT, LIVER, S-9, PCB, Method: PREINCUBATION

The source made the active and inactive calls. The rule behind the calls is not given here.

On to `CCCCCCCCCCCCCl`, for which the mutagenic call is, setting by setting: under setting [1], “inactive; negative”; under setting [2], “inactive; negative”; under setting [3], “inactive; negative”; under setting [4], “inactive; negative”; under setting [5], “inactive; negative”; under setting [6], “inactive; negative”. The mutagenic call under setting [7] is “inactive; negative”; the mutagenic call under setting [8] is “inactive; negative”; the mutagenic call under setting [9] was “inactive; negative”; the mutagenic call under setting [10] was “inactive; negative”; the mutagenic call under setting [11] is “inactive; negative”; the mutagenic call under setting [12] was “inactive; negative”. Further, the mutagenic call was “inactive; negative” (Test System: AMES SALMONELLA TYPHIMURIUM, Strain/Indicator: TA1537, Metabolic Activation: HAMSTER, LIVER, S-9, AROCLOR 1254 (30%), Method: PREINCUBATION); “inactive; negative” (Test System: AMES SALMONELLA TYPHIMURIUM, Strain/Indicator: TA1537, Metabolic Activation: NONE, Method: PREINCUBATION); “inactive; negative” (Test System: AMES SALMONELLA TYPHIMURIUM, Strain/Indicator: TA1537, Metabolic Activation: RAT, LIVER, S-9, AROCLOR 1254 (30%), Method: PREINCUBATION).
Take `O=NN(CCO)CCO`: the mutagenic call is, setting by setting: (Test System: AMES SALMONELLA TYPHIMURIUM, Strain/Indicator: TA97, Metabolic Activation: HAMSTER, LIVER, S-9, AROCLOR 1254 (10%), Method: PREINCUBATION) “active; positive”; under setting [2], “active; positive”; (Test System: AMES SALMONELLA TYPHIMURIUM, Strain/Indicator: TA97, Metabolic Activation: RAT, LIVER, S-9, AROCLOR 1254 (10%), Method: PREINCUBATION) “active; positive”; (Test System: AMES SALMONELLA TYPHIMURIUM, Strain/Indicator: TA98, Metabolic Activation: HAMSTER, LIVER, S-9, AROCLOR 1254 (10%), Method: PREINCUBATION) “active; positive”; under setting [5], “active; positive”; (Test System: AMES SALMONELLA TYPHIMURIUM, Strain/Indicator: TA98, Metabolic Activation: RAT, LIVER, S-9, AROCLOR 1254 (10%), Method: PREINCUBATION) “active; positive”. Besides, the mutagenic call is, setting by setting: (Test System: AMES SALMONELLA TYPHIMURIUM, Strain/Indicator: TA100, Metabolic Activation: HAMSTER, LIVER, S-9, AROCLOR 1254 (10%), Method: PREINCUBATION) “active; positive”; under setting [13], “active; positive”; (Test System: AMES SALMONELLA TYPHIMURIUM, Strain/Indicator: TA100, Metabolic Activation: RABBIT, LIVER, S-9, Method: STANDARD PLATE) “inactive; negative”; (Test System: AMES SALMONELLA TYPHIMURIUM, Strain/Indicator: TA100, Metabolic Activation: RABBIT, LUNG, S-9, Method: STANDARD PLATE) “inactive; negative”; (Test System: AMES SALMONELLA TYPHIMURIUM, Strain/Indicator: TA100, Metabolic Activation: RABBIT, NASAL, S-9, Method: STANDARD PLATE) “active; positive”; (Test System: AMES SALMONELLA TYPHIMURIUM, Strain/Indicator: TA100, Metabolic Activation: RAT, LIVER, S-9, AROCLOR 1254 (10%), Method: PREINCUBATION) “active; positive”. Also, the mutagenic call reads like this: (Test System: AMES SALMONELLA TYPHIMURIUM, Strain/Indicator: TA100, Metabolic Activation: RAT, LIVER, S-9, Method: STANDARD PLATE) “inactive; negative”; (Test System: AMES SALMONELLA TYPHIMURIUM, Strain/Indicator: TA100, Metabolic Activation: RAT, LUNG, S-9, Method: STANDARD PLATE) “active; positive”; (Test System: AMES SALMONELLA TYPHIMURIUM, Strain/Indicator: TA100, Metabolic Activation: RAT, NASAL, S-9, Method: STANDARD PLATE) “active; positive”; (Test System: AMES SALMONELLA TYPHIMURIUM, Strain/Indicator: TA1535, Metabolic Activation: HAMSTER, LIVER, S-9, AROCLOR 1254 (10%), Method: PREINCUBATION) “active; positive”; under setting [11], “inactive; negative”; (Test System: AMES SALMONELLA TYPHIMURIUM, Strain/Indicator: TA1535, Metabolic Activation: RAT, LIVER, S-9, AROCLOR 1254 (10%), Method: PREINCUBATION) “active; positive”.
For `N#CCCC(=O)CCc1ccc(C(=O)O)cc1`, the mutagenic call is, setting by setting: under setting [5], “active; positive”; under setting [14], “inactive; negative”; under setting [8], “inactive; negative”; under setting [15], “inactive; negative”.
As for `O=C(CBr)c1ccc(Br)cc1`, the mutagenic call was “inactive; negative” under setting [5]; “inactive; negative” under setting [14]; “inactive; negative” under setting [8]; “inactive; negative” under setting [15]; “inactive; negative” (Test System: E. COLI, Strain/Indicator: WP2 UVRA, Metabolic Activation: NONE, Method: PREINCUBATION).
For the compound `Nc1ccc(/C=C/C(=O)O)cc1`, the mutagenic call is, setting by setting: (Test System: AMES SALMONELLA TYPHIMURIUM, Strain/Indicator: TA98, Metabolic Activation: NONE, Method: STANDARD PLATE) “inactive; negative”; (Test System: AMES SALMONELLA TYPHIMURIUM, Strain/Indicator: TA98, Metabolic Activation: RAT, LIVER, S-9, AROCLOR 1254, Method: STANDARD PLATE) “inactive; negative”; under setting [8], “inactive; negative”; under setting [13], “inactive; negative”; (Test System: AMES SALMONELLA TYPHIMURIUM, Strain/Indicator: TA100, Metabolic Activation: RAT, LIVER, S-9, AROCLOR 1254, Method: PREINCUBATION) “inactive; negative”; (Test System: AMES SALMONELLA TYPHIMURIUM, Strain/Indicator: TA100, Metabolic Activation: RAT, LIVER, S-9, AROCLOR 1254, Method: STANDARD PLATE) “inactive; negative”.
For the compound `CCCCCCCCCC[N+](C)(C)Cc1ccccc1`, the mutagenic call was “inactive; negative” under setting [1]; “inactive; negative” under setting [2]; “inactive; negative” under setting [3]; “inactive; negative” under setting [4]; “inactive; negative” under setting [5]; “inactive; negative” under setting [6]. Besides, the mutagenic call runs as follows: under setting [7], “inactive; negative”; under setting [8], “inactive; negative”; under setting [9], “inactive; negative”; under setting [10], “inactive; negative”; under setting [11], “inactive; negative”; under setting [12], “inactive; negative”.
Regarding `CC(CCC(=O)O)(c1ccc(O)cc1)c1ccc(O)cc1`, the mutagenic call by setting is: (Test System: MOUSE LYMPHOMA, Strain/Indicator: L5178Y (TK+/TK-), Metabolic Activation: NONE, Method: SUSPENSION/PLATE) “active; positive”; (Test System: MOUSE LYMPHOMA, Strain/Indicator: L5178Y (TK+/TK-), Metabolic Activation: RAT LIVER S-9, AROCLOR, Method: SUSPENSION/PLATE) “active; positive”.

The values above are taken from PubChem BioAssay AID1259407 (Chemical Carcinogenesis Research Information System (CCRIS), 2018).
